Laboratory results from BigSolDB 2.1.

Nc1nc(N)nc(NC2CC2)n1
Details | solubility (mole fraction)
in acetic acid, 293.15 K | 0.0128
in acetic acid, 298.15 K | 0.0155
in acetic acid, 303.15 K | 0.0187
in acetic acid, 308.15 K | 0.0227
in acetic acid, 313.15 K | 0.0275
in acetic acid, 318.15 K | 0.033
in acetic acid, 323.15 K | 0.0395
in acetic acid, 328.15 K | 0.0471
in acetic acid, 333.15 K | 0.0562
in acetone, 283.15 K | 0.000486
in acetone, 288.15 K | 0.000535
in acetone, 293.15 K | 0.000617
in acetone, 298.15 K | 0.00071
in acetone, 303.15 K | 0.000805
in acetone, 308.15 K | 0.00091
in acetone, 313.15 K | 0.00103
in acetone, 318.15 K | 0.00114
in acetone, 323.15 K | 0.00127
in acrylic acid, 293.15 K | 0.0341
in acrylic acid, 298.15 K | 0.0413
in acrylic acid, 303.15 K | 0.0492
in acrylic acid, 308.15 K | 0.0581
in acrylic acid, 313.15 K | 0.0683
in acrylic acid, 318.15 K | 0.0785
in acrylic acid, 323.15 K | 0.09
in acrylic acid, 328.15 K | 0.101
in acrylic acid, 333.15 K | 0.112
in ethanol, 283.15 K | 0.000916
in ethanol, 288.15 K | 0.00107
in ethanol, 293.15 K | 0.00127
in ethanol, 298.15 K | 0.00149
in ethanol, 303.15 K | 0.00172
in ethanol, 308.15 K | 0.00205
in ethanol, 313.15 K | 0.00253
in ethanol, 318.15 K | 0.00299
in ethanol, 323.15 K | 0.00355
in isobutanol, 283.15 K | 0.000396
in isobutanol, 288.15 K | 0.000483
in isobutanol, 293.15 K | 0.000594
in isobutanol, 298.15 K | 0.000702
in isobutanol, 303.15 K | 0.00084
in isobutanol, 308.15 K | 0.000983
in isobutanol, 313.15 K | 0.00115
in isobutanol, 318.15 K | 0.00131
in isobutanol, 323.15 K | 0.0015
in isopentanol, 283.15 K | 0.000469
in isopentanol, 288.15 K | 0.000592
in isopentanol, 293.15 K | 0.000725
in isopentanol, 298.15 K | 0.00087
in isopentanol, 303.15 K | 0.00104
in isopentanol, 308.15 K | 0.00127
in isopentanol, 313.15 K | 0.00148
in isopentanol, 318.15 K | 0.0018
in isopentanol, 323.15 K | 0.00214
in isopropanol, 283.15 K | 0.000465
in isopropanol, 288.15 K | 0.000529
in isopropanol, 293.15 K | 0.000638
in isopropanol, 298.15 K | 0.000751
in isopropanol, 303.15 K | 0.000915
in isopropanol, 308.15 K | 0.00109
in isopropanol, 313.15 K | 0.00125
in isopropanol, 318.15 K | 0.00146
in isopropanol, 323.15 K | 0.00172
in methanol, 283.15 K | 0.00199
in methanol, 288.15 K | 0.00224
in methanol, 293.15 K | 0.00251
in methanol, 298.15 K | 0.00279
in methanol, 303.15 K | 0.0031
in methanol, 308.15 K | 0.00344
in methanol, 313.15 K | 0.00378
in methanol, 318.15 K | 0.00416
in methanol, 323.15 K | 0.00456
in n-butanol, 283.15 K | 0.00073
in n-butanol, 288.15 K | 0.000871
in n-butanol, 293.15 K | 0.00104
in n-butanol, 298.15 K | 0.00126
in n-butanol, 303.15 K | 0.0015
in n-butanol, 308.15 K | 0.00179
in n-butanol, 313.15 K | 0.00217
in n-butanol, 318.15 K | 0.00262
in n-butanol, 323.15 K | 0.0031
in n-heptanol, 283.15 K | 0.000235
in n-heptanol, 288.15 K | 0.000322
in n-heptanol, 293.15 K | 0.000422
in n-heptanol, 298.15 K | 0.000556
in n-heptanol, 303.15 K | 0.000737
in n-heptanol, 308.15 K | 0.000957
in n-heptanol, 313.15 K | 0.00124
in n-heptanol, 318.15 K | 0.00162
in n-heptanol, 323.15 K | 0.00213
in n-hexanol, 283.15 K | 0.000534
in n-hexanol, 288.15 K | 0.000661
in n-hexanol, 293.15 K | 0.000816
in n-hexanol, 298.15 K | 0.001
in n-hexanol, 303.15 K | 0.00123
in n-hexanol, 308.15 K | 0.00151
in n-hexanol, 313.15 K | 0.00185
in n-hexanol, 318.15 K | 0.00227
in n-hexanol, 323.15 K | 0.00279
in n-pentanol, 283.15 K | 0.000671
in n-pentanol, 288.15 K | 0.000818
in n-pentanol, 293.15 K | 0.000981
in n-pentanol, 298.15 K | 0.00119
in n-pentanol, 303.15 K | 0.00142
in n-pentanol, 308.15 K | 0.00171
in n-pentanol, 313.15 K | 0.00204
in n-pentanol, 318.15 K | 0.00245
in n-pentanol, 323.15 K | 0.00291
in n-propanol, 283.15 K | 0.000809
in n-propanol, 288.15 K | 0.000927
in n-propanol, 293.15 K | 0.00113
in n-propanol, 298.15 K | 0.00136
in n-propanol, 303.15 K | 0.00163
in n-propanol, 308.15 K | 0.00191
in n-propanol, 313.15 K | 0.00237
in n-propanol, 318.15 K | 0.00281
in n-propanol, 323.15 K | 0.00327
in propionic acid, 278.15 K | 0.00472
in propionic acid, 283.15 K | 0.00562
in propionic acid, 288.15 K | 0.00697
in propionic acid, 293.15 K | 0.00847
in propionic acid, 298.15 K | 0.0101
in propionic acid, 303.15 K | 0.0123
in propionic acid, 308.15 K | 0.0148
in propionic acid, 313.15 K | 0.0177
in propionic acid, 318.15 K | 0.0212
in sec-butanol, 283.15 K | 0.000301
in sec-butanol, 288.15 K | 0.00038
in sec-butanol, 293.15 K | 0.00048
in sec-butanol, 298.15 K | 0.000581
in sec-butanol, 303.15 K | 0.000686
in sec-butanol, 308.15 K | 0.000846
in sec-butanol, 313.15 K | 0.000995
in sec-butanol, 318.15 K | 0.0012
in sec-butanol, 323.15 K | 0.00147
in water, 283.15 K | 0.000931
in water, 288.15 K | 0.00108
in water, 293.15 K | 0.00125
in water, 298.15 K | 0.00144
in water, 303.15 K | 0.00166
in water, 308.15 K | 0.00193
in water, 313.15 K | 0.00221
in water, 318.15 K | 0.00254
in water, 323.15 K | 0.00293
